Reference: PMC6200136 (Journal of medicinal chemistry, 2017)

Key:
phospho-CDK1 (Tyr15) = test: Immunoblotting of phospho-CDK1; format: cell-based, human; details: synchronized HEK293T and MDA-MB-231 cells, 6 h drug treatment
[1] = test system: phosphorylated TCTP (PLK1 substrate); test: Immunoblotting of phospho-TCTP; format: cell-based, human; details: synchronized HEK293T and MDA-MB-231 cells, 6 h drug treatment
[2] = test system: HEK293T, MM1.S, and MDA-MB-231 cells; test: Cell viability across HEK293T, MM1.S and MDA-MB-231; format: cell-based; details: Homo sapiens, 72 h, read-out: cell viability IC50 values (range over cell lines)
Myt1-KD = biological target: T1, Myt1-KD (Homo sapiens, UniProt Q99640); test: DSF thermal shift, Myt1 kinase domain; format: binding; details: DSF screen, 100 μM
T1 sequence (Q99640 75-361): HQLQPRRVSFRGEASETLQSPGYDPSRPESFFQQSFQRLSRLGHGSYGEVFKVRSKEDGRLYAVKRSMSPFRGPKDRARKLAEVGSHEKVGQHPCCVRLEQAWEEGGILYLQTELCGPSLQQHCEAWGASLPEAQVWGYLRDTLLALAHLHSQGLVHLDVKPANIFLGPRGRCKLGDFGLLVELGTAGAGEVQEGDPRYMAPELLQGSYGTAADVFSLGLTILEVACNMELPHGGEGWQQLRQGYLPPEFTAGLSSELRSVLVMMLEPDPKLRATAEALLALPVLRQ

SMILES | effect on CDK1 phosphorylation (phospho-CDK1 (Tyr15)) | reduction of phosphorylation levels, times less effective than BI-2536 and 1 [1] | IC50 [2] [nM] | binding potential for Myt1 (in words) (Myt1-KD)
CC[C@@H]1C(=O)N(C)c2cnc(Nc3ccc(C(=O)NC4CCN(C)CC4)cc3OC)nc2N1C1CCCC1 [BI-2536] | no effect |  |  | 
C=CCn1c(=O)c2cnc(Nc3ccc(N4CCN(C)CC4)cc3)nc2n1-c1cccc(C(C)(C)O)n1 [MK-1775] | reducing the levels of phosphorylated CDK1 | about 10 times | 290 to 310 | 
C[C@@H](Oc1cc(-n2cnc3ccc(CN4CCN(C)CC4)cc32)sc1C(N)=O)c1ccccc1C(F)(F)F [compound 1, (R)-5-(6-((4-methylpiperazin-1-yl)methyl)-1H-benzo[d]imidazol-1-yl)-3-(1-(2-(trifluoromethyl)phenyl)-ethoxy)thiophene-2-carboxamide] | no effect |  |  | 
CC(=O)NCC(=O)N1[C@@H]2CC[C@H]1c1ccc(Nc3ncc(C(F)(F)F)c(NC4CCC4)n3)cc12 [compound 2] |  |  |  | no binding potential
